In ChEMBL document CHEMBL1671739, “Reservoir of antimicrobial resistance determinants associated with horizontal gene transfer in clinical isolates of the genus Shewanella” (2010):
≈ marks a conversion by molar mass, not a printed value.

Key:
Format in all cases: functional
Shewanella putrefaciens [1] = test: Antimicrobial activity against Shewanella putrefaciens Sp117 harboring intI1,sul1,sul2 and beta-lactamase OXA-48 like genes by CLSI method
Shewanella putrefaciens [2] = test: Antimicrobial activity against Shewanella putrefaciens Sp95 harboring intI1,sul1,sul2 and beta-lactamase OXA-48 like genes by CLSI method
Shewanella putrefaciens [3] = test: Antimicrobial activity against Shewanella putrefaciens Sp31 harboring intI1 and beta-lactamase OXA-48 like genes by CLSI method
Shewanella algae [4] = test: Antimicrobial activity against Shewanella algae Sa9 harboring intI1, intI2, sul1 and sul2 genes by CLSI method
Shewanella algae [5] = test: Antimicrobial activity against Shewanella algae Sa78 harboring sul2 gene by CLSI method
Shewanella algae [6] = test: Antimicrobial activity against Shewanella algae Sa74 harboring intI1, intI2, sul1 and sul2 genes by CLSI method
Shewanella algae [7] = test: Antimicrobial activity against Shewanella algae Sa10 harboring intI1, intI2, sul1 and sul2 genes by CLSI method
Shewanella algae [8] = test: Antimicrobial activity against Shewanella algae Sa82 harboring intI1, intI2, sul1 and sul2 genes by CLSI method
Shewanella algae [9] = test: Antimicrobial activity against Shewanella algae Sa392 harboring intI1, intI2, sul1 and sul2 genes by CLSI method
Shewanella algae [10] = test: Antimicrobial activity against Shewanella algae Sa2 harboring intI1, intI2 and sul1 genes by CLSI method

Structure (SMILES)	MIC (Shewanella putrefaciens [1]) [µg/mL]	MIC (Shewanella putrefaciens [2]) [µg/mL]	MIC (Shewanella putrefaciens [3]) [µg/mL]	MIC (Shewanella algae [4]) [µg/mL]	MIC (Shewanella algae [5]) [µg/mL]	MIC (Shewanella algae [6]) [µg/mL]	MIC (Shewanella algae [7]) [µg/mL]	MIC (Shewanella algae [8]) [µg/mL]	MIC (Shewanella algae [9]) [µg/mL]	MIC (Shewanella algae [10]) [µg/mL]
C[C@@H](O)[C@H]1C(=O)N2C(C(=O)O)=C(SCCNC=N)C[C@H]12 [IMIPENEM ANHYDROUS]	1 (≈ 3.34 µM)	0.5 (≈ 1.67 µM)	0.25 (≈ 0.835 µM)	2 (≈ 6.68 µM)	4 (≈ 13.4 µM)	4 (≈ 13.4 µM)	8 (≈ 26.7 µM)	0.25 (≈ 0.835 µM)	4 (≈ 13.4 µM)	0.25 (≈ 0.835 µM)
C[C@@H](O)[C@H]1C(=O)N2C(C(=O)O)=C(S[C@@H]3CN[C@H](C(=O)N(C)C)C3)[C@H](C)[C@H]12 [MEROPENEM]	4 (≈ 10.4 µM)	0.25 (≈ 0.652 µM)	0.125 (≈ 0.326 µM)	0.125 (≈ 0.326 µM)	0.25 (≈ 0.652 µM)	0.0094 (≈ 0.0245 µM)	1 (≈ 2.61 µM)	0.38 (≈ 0.991 µM)	1 (≈ 2.61 µM)	0.032 (≈ 0.0834 µM)
